Data set [1] relates to human glioblastoma cell line U87 Flue. In words: Brain tumor-bearing SCID mice (U87 Flue glioblastoma), 80-day survival and tumor progression study.
Source text: The U87 Flue cell line was created by stably transducing U87 cells with a lentiviral construct containing the luc gene.
Another data set concerns malignant brain tumor. The experiment in a line: Clinical study of CRF in patients with malignant brain tumor (tumor size by MRI, survival). It is filed as in vivo, human. The procedure:
Patients with malignant brain tumor were treated with 2 mg/day (1 mg dose, twice daily) of either human CRF subcutaneously. […] Additionally, of the 30 patients who had received treatment for at least 6 months, 10 experienced a decrease in tumor size.

The next data set deals with peritumoral edema. To be noted: patients with peritumoral edema; cited from earlier work.
[2] abbreviates: high dose of CRF, 80-day study period.

With `O=NN(CCCl)C(=O)NCCCl` [BiCNU, reference compound], in data set [1] (chemotherapeutic agents, TMZ: all mice but one), the “brain tumor growth / response to treatment (photon emission)” value was “continued to grow”.
As for `Cn1nnc2c(C(N)=O)ncn2c1=O` [TMZ, reference compound], the “mice still alive at the end of the 80-day study period” value in data set [1] (TMZ-treated mice) is recorded as 40%.
With “CRF: endogenous 41 amino acid peptide, the major hypothalamic hormone responsible for stimulation of the pituitary-adrenal axis”, the “patients exhibiting a reduction in tumor size of around 90%” value in the data set on malignant brain tumor (FIG. 2 patients, 2 mg/day s.c.) is on record as “two”. Besides, in the data set on malignant brain tumor (FIGS. 1 and 2), the “survival of some patients after CRF treatment” value is given as 1-2 years. In addition, the “survival of the overwhelming majority of patients” value in the data set with malignant brain tumor (FIGS. 1 and 2, projected survival 3-6 months) is listed as “live well beyond the projected 3-6 months”. Further, the “metastatic patients exhibiting survival beyond the projected 3-6 months” value with malignant brain tumor (of the 3 metastatic patients in FIG. 3) was found to be 3 patients. Moreover, in the data set with malignant brain tumor (of the 3 metastatic patients in FIG. 3, 2 mg/day s.c.), the “metastatic patients showing a reduction in tumor size at the last timepoint measured” value is on record as 2 patients. Further, in the data set on malignant brain tumor (of the 10 patients in FIG. 2, 2 mg/day s.c.), the “patients exhibiting a reduction in tumor size at the last time point measured” value came out at 8 patients. The “patients exhibiting a maintenance in tumor size” value in the data set on malignant brain tumor (of the 20 patients in FIG. 1, 2 mg/day s.c.) was found to be 5 patients. Further, the “patients exhibiting a reduction in tumor size” value with malignant brain tumor (of the 20 patients in FIG. 1, 2 mg/day s.c. (1 mg twice daily)) was 6 patients. The “patients exhibiting a reduction in tumor size by over 50%” value in the data set with malignant brain tumor (of the 20 patients in FIG. 1, after 9 months of treatment, 2 mg/day s.c.) worked out at 3 patients. In the data set on malignant brain tumor (of the 30 patients treated for at least 6 months), the “patients experiencing a decrease in tumor size” value worked out at 10 patients. Besides, in data set [1] (high dose of CRF, 100 μg/kg s.c. twice daily, all mice), the “survival over the 80-day study period” value was “survived the entire 80-day study period”. Moreover, in data set [1] (setting [2]), the “brain tumor progression (luminescence imaging)” value is “did not progress during the 80-day study period” and the “health appearance of the mice during the study” value was “appeared healthy throughout”. Further, in data set [1] (low dose of CRF), the “brain tumor progression (luminescence imaging)” value is “did not progress or progressed more slowly”; the mean survival time result was “between mice, that were administered a high dose of CRF, and mice that had received no treatment or were administered dexamethasone”; the “mice still alive at the end of the 80-day study period” value was 60%.
With corticorelin acetate, in the data set with peritumoral edema, the exposure to dexamethasone result is “reduced exposure to dexamethasone” and the steroid-related side effects result was “improvement in steroid-related side effects”.

The values are drawn from patent publication US7816323B2, “Methods of using corticotropin-releasing factor for the use of the treatment of cancer” (priority 2008, dated 2010).
